The source of these data is patent US20100204182A1, “ECTONUCLEOTIDASE INHIBITORS” (RHEINISCHE FRIEDRICH-WILHELMS-UNIVERSITAT BONN, priority 2006, published 2010).

SMILES strings stand for the structures.

In assay [1] the target is T1, human NTPDase1 (Homo sapiens, UniProt P49961).
T1 sequence (P49961 1-510): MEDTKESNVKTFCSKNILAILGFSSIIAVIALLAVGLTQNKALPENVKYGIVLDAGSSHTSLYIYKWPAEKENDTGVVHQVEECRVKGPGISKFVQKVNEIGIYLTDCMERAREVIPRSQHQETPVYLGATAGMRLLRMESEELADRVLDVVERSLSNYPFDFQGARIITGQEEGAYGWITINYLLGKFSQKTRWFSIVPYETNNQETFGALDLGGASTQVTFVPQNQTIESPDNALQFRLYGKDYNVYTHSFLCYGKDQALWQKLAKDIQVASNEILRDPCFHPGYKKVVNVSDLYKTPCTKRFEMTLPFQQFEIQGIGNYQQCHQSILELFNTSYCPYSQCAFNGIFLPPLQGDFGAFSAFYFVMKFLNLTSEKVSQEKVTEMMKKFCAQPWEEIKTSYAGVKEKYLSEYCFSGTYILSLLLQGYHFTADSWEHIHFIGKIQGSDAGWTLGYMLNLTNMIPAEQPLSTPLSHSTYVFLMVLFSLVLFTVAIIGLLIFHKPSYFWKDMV
As to the kind of experiment: NTPDase inhibition assay by capillary electrophoresis (CE), NTPDase1. The assay is classed as biochemical. The note with it: ATP 320 μM; for Ki: CE method, Km 17 μM, read-out: NTPDase1 Ki [μM] ± SEM. Put shortly: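 Recombinant or native human NTPDase was run with 320 μM ATP in Hepes buffer pH 7.4 (NaCl, KCl, MgCl2, CaCl2) at 37° C for 15 min, stopped by heating at 99° C. Products were quantified by capillary electrophoresis (UV 210 nm, UMP internal standard). IC50 from 6-8 concentrations was converted to Ki by Cheng-Prusoff.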

In assay [2] the target is T2, human NTPDase2 (Homo sapiens, UniProt Q9Y5L3).
T2 sequence (Q9Y5L3 1-495): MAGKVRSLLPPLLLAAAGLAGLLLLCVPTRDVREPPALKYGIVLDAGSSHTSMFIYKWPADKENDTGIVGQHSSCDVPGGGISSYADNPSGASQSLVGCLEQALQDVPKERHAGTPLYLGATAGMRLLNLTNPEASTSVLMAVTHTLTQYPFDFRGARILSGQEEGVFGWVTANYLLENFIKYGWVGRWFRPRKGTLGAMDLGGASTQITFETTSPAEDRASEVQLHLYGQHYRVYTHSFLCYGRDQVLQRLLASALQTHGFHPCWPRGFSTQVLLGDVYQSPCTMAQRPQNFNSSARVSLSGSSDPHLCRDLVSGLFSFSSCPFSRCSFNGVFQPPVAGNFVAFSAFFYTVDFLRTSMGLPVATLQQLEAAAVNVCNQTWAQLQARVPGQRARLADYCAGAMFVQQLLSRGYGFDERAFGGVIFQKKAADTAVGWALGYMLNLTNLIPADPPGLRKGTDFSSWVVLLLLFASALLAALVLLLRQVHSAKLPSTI
The assay can be described thus: NTPDase inhibition assay by capillary electrophoresis (CE), NTPDase2. Type of assay: biochemical. The note with it: for Ki: human NTPDase2, CE method, ATP 320 μM, Km 70 μM, read-out: NTPDase2 Ki [μM] ± SEM.

The target in assay [3] is T3, human NTPDase8 (Homo sapiens, UniProt Q5MY95).
T3 sequence (Q5MY95 1-495): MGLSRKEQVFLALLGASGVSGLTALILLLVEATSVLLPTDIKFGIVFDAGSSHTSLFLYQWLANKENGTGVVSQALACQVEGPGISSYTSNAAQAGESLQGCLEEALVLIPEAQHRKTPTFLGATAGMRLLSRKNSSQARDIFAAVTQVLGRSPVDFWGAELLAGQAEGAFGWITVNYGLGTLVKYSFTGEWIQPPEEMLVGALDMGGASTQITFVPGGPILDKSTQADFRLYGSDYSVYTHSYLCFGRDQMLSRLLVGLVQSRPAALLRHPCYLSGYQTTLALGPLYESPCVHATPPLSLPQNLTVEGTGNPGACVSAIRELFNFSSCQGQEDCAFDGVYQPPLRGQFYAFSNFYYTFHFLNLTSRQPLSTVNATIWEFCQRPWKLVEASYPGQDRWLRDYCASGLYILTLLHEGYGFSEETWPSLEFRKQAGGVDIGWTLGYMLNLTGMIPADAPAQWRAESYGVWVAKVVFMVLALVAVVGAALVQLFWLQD
The assay can be described thus: NTPDase inhibition assay by capillary electrophoresis (CE), NTPDase8. Type of assay: biochemical. To be noted: for inhibition at 1000 µM: human NTPDase8, 1 mM compound, ATP 320 μM; for Ki: read-out: NTPDase8 Ki [μM] ± SEM. As for the experimental part: The applied enzyme inhibition assay has been described (Iqbal J, Vollmayer P, Braun N, Zimmermann H, Müller C E. A capillary electrophoresis method for the characterization of ecto-nucleoside triphosphate diphosphohydrolases (NTPDases) and the analysis of inhibitors by in-capillary enzymatic microreaction. Purinergic Signalling 2005, 1, 349-358).
A. CE instrumentation: All experiments were carried out using a P/ACE MDQ capillary electrophoresis system (Beckman Instruments, Fullerton, Calif., USA) equipped with a UV detection system coupled with a diode-array detector (DAD). Data collection and peak area analysis were performed by the P/ACE MDQ software 32 KARAT obtained from Beckman Coulter. The capillary temperature was kept constant at 25° C. The temperature of the sample storing unit was also adjusted to 25° C. The electrophoretic separations were carried out using an eCAP polyacrylamide-coated fused-silica capillary [(30 cm (20 cm effective length)×50 μm internal diameter (I.D.)×360 μm outside diameter (O.D.), obtained from CS-Chromatographie (Langerwehe, Germany)]. The separation was performed using an applied current of −60 μA and a data acquisition rate of 8 Hz. Analytes were detected using direct UV absorbance at 210 nm. The capillary was conditioned by rinsing with water for 2 min and subsequently with buffer (phosphate 50 mM, pH 6.5) for 1 min. Sample injections were made at the cathodic side of the capillary.
B. NTPDase inhibition assay by capillary electrophoresis: Enzyme inhibition assays were carried out at 37° C. in a final volume of 100 μl. The reaction mixture contained 320 μM of ATP (substrate) in reaction buffer. The reaction buffer contained 140 mM NaCl, 5 mM KCl, 1 mM MgCl2, 2 mM CaCl2, and 10 mM Hepes, pH 7.4.
Different concentrations of inhibitors dissolved in DMSO or water (10 μl) were added and the reaction was initiated by the addition of 10 μl of the appropriately diluted recombinant or native human or rat NTPDase enzyme. […] The mixture (final volume 100 μl) was incubated for 15 min and terminated by heating at 99° C. for 4 min. Aliquots of the reaction mixture (50 μl) were then transferred to mini-CE vials and injected into the CE instrument under the conditions described above. 20 μM of UMP was used as internal standard. Inhibition of NTPDase was tested over a range of 6 to 8 concentrations of test compound spanning 3 orders of magnitude to determine K1 values. Each analysis was repeated two times (in triplicates) in two separate experiments. The Cheng-Prusoff equation was used to calculate the K1 values from the IC50 values, determined by the non-linear curve fitting program PRISM® 3.0 (GraphPad, San Diego, Calif., USA). In table 1K, values of selected compounds as inhibitors of human NTPDases are given.

Assay [4] deals with hP2Y12 (Homo sapiens, UniProt Q9H244). As to the kind of experiment: Inhibition of [3H]PSB-0413 binding at hP2Y12. The note with it: mean ± SEM, read-out: hP2Y12 % Inhibition of [^3H]PSB-0413 Binding at 10 μM, n = 3. The procedure:
In table 2 inhibition data of selected examples at human P2Y receptor subtypes were collected. It can be seen that no compound was identified that inhibited P2Y receptors at high concentrations of 100 μM and 10 μM, respectively.

Chain of hP2Y12 (Q9H244 whole entry): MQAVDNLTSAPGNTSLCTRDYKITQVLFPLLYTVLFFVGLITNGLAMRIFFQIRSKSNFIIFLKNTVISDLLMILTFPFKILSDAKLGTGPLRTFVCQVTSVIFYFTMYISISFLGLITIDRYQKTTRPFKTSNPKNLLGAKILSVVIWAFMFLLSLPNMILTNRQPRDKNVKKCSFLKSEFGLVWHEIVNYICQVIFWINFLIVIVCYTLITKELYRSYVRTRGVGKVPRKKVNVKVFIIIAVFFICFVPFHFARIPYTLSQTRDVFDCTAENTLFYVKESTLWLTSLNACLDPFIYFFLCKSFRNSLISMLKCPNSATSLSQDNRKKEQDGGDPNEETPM

Usually inhibition stands for the drop in the measured response relative to a control, in per cent. One may read the Ki as a dissociation constant, usually derived from enzyme kinetics or from competition with a known ligand. As to `CCOP(=O)(Cc1ccc(NC(=O)CNC(=O)[C@H]2O[C@@H](n3ccc(=O)[nH]c3=O)C(O)C2O)cc1)OCC` (stereo in doubt) [Compound 2, 4-[2-((2S,3R,4S,5R)-5-(2,4-Dioxo-3,4-dihydropyrimidin-1(2H)-yl)-3,4-dihydroxy-tetrahydrofurane-2-carboxamido)ethaneamido]benzylphosphonic acid diethylester], the inhibition at 1000 µM was determined as 50% in assay [1] (1 mM compound) and 0% in assay [3]. Further, the Ki in assay [1] was > 50 µM; in assay [2], 8.2 ± 2.1 µM; in assay [3], > 100 µM. For the same compound, the “inhibitor of NTPDase (in words)” value in assay [2] (in words, compare Tab. 1) is reported as “excellent inhibitor”. Further, the inhibition at 10 µM in assay [4] was found to be 2 ± 6%.
Regarding `CCOP(=O)(Cc1ccc(NC(=O)CCNC(=O)[C@H]2O[C@@H](n3ccc(=O)[nH]c3=O)C(O)C2O)cc1)OCC` (stereo in doubt) [Compound 3, 4-[3-((2S,3R,4S,5R)-5-(2,4-Dioxo-3,4-dihydropyrimidin-1(2H)-yl)-3,4-di-hydroxy-tetrahydrofurane-2-carboxamido)propaneamido]benzylphosphonic acid diethylester], the Ki in assay [1] was 55.2 ± 2.6 µM; in assay [2], 173 ± 17 µM; in assay [3], > 100 µM. Besides, the inhibition at 1000 µM in assay [3] is 0%. For the same compound, in assay [4], the inhibition at 10 µM was determined as 9 ± 4%.
